# Results reported in ChEMBL document CHEMBL1201861, “Genomics of Drug Sensitity in Cancer screening data, Wellcome Trust Sanger Institute”.
# What was measured:
# Assay in all cases: cells
# COR-L88 = assay type: functional, cell-based; conditions: Homo sapiens;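 further: growth inhibition of COR-L88 cells, read out with a cell viability assay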
# Description: SANGER: Inhibition of human COR-L88 cell growth in a cell viability assay.
# CP66-MEL = assay type: functional, cell-based, Homo sapiens; conditions: Homo sapiens, CP66-MEL;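 further: growth inhibition of CP66-MEL cells determined in a cell viability assay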
# Description: SANGER: Inhibition of human CP66-MEL cell growth in a cell viability assay.
# EC-GI-10 = assay type: functional, cell-based, Homo sapiens; conditions: Homo sapiens, EC-GI-10
# Description: SANGER: Inhibition of human EC-GI-10 cell growth in a cell viability assay.
# ES1 = assay type: functional, cell-based, Homo sapiens; conditions: Homo sapiens, ES1
# Description: SANGER: Inhibition of human ES1 cell growth in a cell viability assay.
# ES3 = assay type: functional, cell-based, Homo sapiens; conditions: Homo sapiens, ES3;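 further: growth inhibition of ES3 cells, read out with a cell viability assay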
# ES8 = assay type: functional, cell-based, Homo sapiens; conditions: Homo sapiens, ES8;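 further: growth inhibition of human ES8 cells, read out with a cell viability assay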
# Description: SANGER: Inhibition of human ES8 cell growth in a cell viability assay.
# EW-18 = assay type: functional, cell-based; conditions: Homo sapiens;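 further: growth inhibition of EW-18 cells, read out by a cell viability assay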
# Description: SANGER: Inhibition of human EW-18 cell growth in a cell viability assay.
# HCE-T = assay type: functional, cell-based, Homo sapiens; conditions: Homo sapiens, HCE-T;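 further: cell viability assay read-out, reporting inhibition of HCE-T cell growth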
# Description: SANGER: Inhibition of human HCE-T cell growth in a cell viability assay.
# HOP-62 = assay type: functional, cell-based, Homo sapiens; conditions: Homo sapiens, HOP-62;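 further: cell growth inhibition determined with a viability assay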
# Description: SANGER: Inhibition of human HOP-62 cell growth in a cell viability assay.
# IST-MES1 = assay type: functional, cell-based, Homo sapiens; conditions: Homo sapiens, IST-MES1;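 further: growth inhibition of IST-MES1 cells, measured with a cell viability assay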
# Description: SANGER: Inhibition of human IST-MES1 cell growth in a cell viability assay.
# JAR = assay type: functional, cell-based, Homo sapiens; conditions: Homo sapiens, JAR;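 further: growth inhibition of human JAR cells determined with a cell viability assay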
# KE-37 = assay type: functional, cell-based; conditions: Homo sapiens;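 further: growth inhibition of KE-37 cells, read out with a cell viability assay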
# KM-H2 = assay type: functional, cell-based; conditions: Homo sapiens;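 further: growth inhibition of KM-H2 cells, read out by a cell viability assay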
# Description: SANGER: Inhibition of human KM-H2 cell growth in a cell viability assay.
# LS-513 = assay type: functional, cell-based, Homo sapiens; conditions: Homo sapiens, LS-513
# Description: SANGER: Inhibition of human LS-513 cell growth in a cell viability assay.
# MSTO-211H = assay type: functional, cell-based, Homo sapiens; conditions: Homo sapiens, MSTO-211H
# Description: SANGER: Inhibition of human MSTO-211H cell growth in a cell viability assay.
# NB17 = assay type: functional, cell-based; conditions: Homo sapiens;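 further: growth inhibition of NB17 cells, read out with a cell viability assay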
# Description: SANGER: Inhibition of human NB17 cell growth in a cell viability assay.
# NCI-H209 = assay type: functional, cell-based; conditions: Homo sapiens;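 further: growth inhibition of human NCI-H209 cells, measured by a cell viability assay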
# Description: SANGER: Inhibition of human NCI-H209 cell growth in a cell viability assay.
# NMC-G1 = assay type: functional, cell-based, Homo sapiens; conditions: Homo sapiens, NMC-G1;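 further: growth inhibition of the NMC-G1 cell line, measured with a cell viability read-out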
# Description: SANGER: Inhibition of human NMC-G1 cell growth in a cell viability assay.
# P30-OHK = assay type: functional, cell-based; conditions: Homo sapiens;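 further: growth inhibition of the P30-OHK cell line, read out with a cell viability assay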
# Description: SANGER: Inhibition of human P30-OHK cell growth in a cell viability assay.
# PSN1 = assay type: functional, cell-based, Homo sapiens; conditions: Homo sapiens, PSN1;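 further: suppression of growth of human PSN1 cells, read out by a cell viability assay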
# Description: SANGER: Inhibition of human PSN1 cell growth in a cell viability assay.
# RKO = assay type: functional, cell-based, Homo sapiens; conditions: Homo sapiens, RKO;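 further: growth inhibition of human RKO cells, read out with a cell viability assay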
# RPMI-8226 = assay type: functional, cell-based; conditions: Homo sapiens
# Description: SANGER: Inhibition of human RPMI-8226 cell growth in a cell viability assay.
# SF-268 = assay type: functional, cell-based, Homo sapiens; conditions: Homo sapiens, SF-268;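 further: growth inhibition of SF-268 cells determined with a cell viability assay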
# SW 954 = assay type: functional, cell-based, Homo sapiens; conditions: Homo sapiens, SW 954;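 further: growth inhibition of SW954 human cancer cells, read out as cell viability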
# Description: SANGER: Inhibition of human SW954 cell growth in a cell viability assay.
# ALL-PO = assay type: functional, cell-based; conditions: Homo sapiens;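 further: growth inhibition of ALL-PO cells, read out by a cell viability assay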
# Description: SANGER: Inhibition of human ALL-PO cell growth in a cell viability assay.
# AM-38 = assay type: functional, cell-based, Homo sapiens; conditions: Homo sapiens, AM-38;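 further: growth inhibition of AM-38 cells of human origin, read out by a cell viability assay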
# TE-8 = assay type: functional, cell-based, Homo sapiens; conditions: Homo sapiens, TE-8;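 further: growth inhibition of TE-8 cells, measured with a cell viability readout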
# Description: SANGER: Inhibition of human TE-8 cell growth in a cell viability assay.
# U-87 MG = assay type: functional, cell-based, U-87MG ATCC; conditions: Homo sapiens;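 further: growth inhibition of the cells measured with a viability assay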
# Description: SANGER: Inhibition of human U-87-MG cell growth in a cell viability assay.
# SW982 = assay type: functional, cell-based; conditions: Homo sapiens;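 further: growth inhibition of SW982 cells, read out with a cell viability assay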
# Description: SANGER: Inhibition of human SW982 cell growth in a cell viability assay.
Structure (SMILES),IC50 (COR-L88) [µM],IC50 (CP66-MEL) [µM],IC50 (EC-GI-10) [µM],IC50 (ES1) [µM],IC50 (ES3) [µM],IC50 (ES8) [µM],IC50 (EW-18) [µM],IC50 (HCE-T) [µM],IC50 (HOP-62) [µM],IC50 (IST-MES1) [µM],IC50 (JAR) [µM],IC50 (KE-37) [µM],IC50 (KM-H2) [µM],IC50 (LS-513) [µM],IC50 (MSTO-211H) [µM],IC50 (NB17) [µM],IC50 (NCI-H209) [µM],IC50 (NMC-G1) [µM],IC50 (P30-OHK) [µM],IC50 (PSN1) [µM],further results
CCc1nc(N)nc(N)c1-c1ccc(Cl)cc1 [PYRIMETHAMINE],> 20,> 20,> 20,0.123,> 20,0.897,> 20,> 20,5.02,> 20,> 20,10.2,12,> 20,7.64,> 20,6.06,> 20,> 20,2.86,IC50 (RKO): > 20 µM; IC50 (RPMI-8226): > 20 µM; IC50 (SF-268): 3.6 µM; IC50 (SW 954): > 20 µM; IC50 (ALL-PO): 1.19 µM; IC50 (AM-38): > 20 µM; IC50 (TE-8): > 20 µM; IC50 (U-87 MG): > 20 µM
O=C(/C=C/c1ccccc1)NC(NC(=S)Nc1cccc2cccnc12)C(Cl)(Cl)Cl (configuration not stated) [SALUBRINAL],> 16,> 16,> 16,> 16,> 16,8.64,> 16,> 16,> 16,> 16,> 16,15.3,> 16,> 16,> 16,> 16,> 16,> 16,> 16,> 16,IC50 (RKO): > 16 µM; IC50 (RPMI-8226): > 16 µM; IC50 (SF-268): > 16 µM; IC50 (SW 954): > 16 µM; IC50 (ALL-PO): 4.09 µM; IC50 (AM-38): > 16 µM; IC50 (TE-8): > 16 µM; IC50 (U-87 MG): > 16 µM
Cc1cc(Nc2cc(N3CCN(C)CC3)nc(Sc3ccc(NC(=O)C4CC4)cc3)n2)n[nH]1 [TOZASERTIB],> 2,> 2,> 2,> 2,> 2,0.0461,> 2,> 2,0.863,> 2,> 2,0.521,> 2,> 2,> 2,> 2,> 2,> 2,> 2,0.22,IC50 (RKO): 0.308 µM; IC50 (RPMI-8226): > 2 µM; IC50 (SF-268): > 2 µM; IC50 (SW 954): 0.122 µM; IC50 (SW982): 0.214 µM; IC50 (ALL-PO): 0.882 µM; IC50 (AM-38): > 2 µM; IC50 (TE-8): 1.8 µM; IC50 (U-87 MG): > 2 µM
CN1CCN(CCOc2cc(OC3CCOCC3)c3c(Nc4c(Cl)ccc5c4OCO5)ncnc3c2)CC1 [SARACATINIB],> 2,> 2,> 2,> 2,> 2,> 2,> 2,> 2,1.5,> 2,> 2,> 2,> 2,> 2,> 2,> 2,> 2,> 2,> 2,> 2,IC50 (RKO): > 2 µM; IC50 (RPMI-8226): > 2 µM; IC50 (SF-268): > 2 µM; IC50 (SW 954): > 2 µM; IC50 (SW982): 1.92 µM; IC50 (ALL-PO): > 2 µM; IC50 (AM-38): > 2 µM; IC50 (TE-8): 0.873 µM; IC50 (U-87 MG): > 2 µM
C=C1C(=O)O[C@@H]2C3O[C@]3(C)CC/C=C(\C)CC[C@@H]12 (some centres not stated),> 5,> 5,> 5,> 5,> 5,> 5,> 5,> 5,> 5,> 5,> 5,> 5,> 5,> 5,> 5,1.72,> 5,> 5,> 5,> 5,IC50 (RKO): > 5 µM; IC50 (RPMI-8226): > 5 µM; IC50 (SF-268): > 5 µM; IC50 (SW 954): > 5 µM; IC50 (ALL-PO): > 5 µM; IC50 (AM-38): > 5 µM; IC50 (TE-8): > 5 µM; IC50 (U-87 MG): > 5 µM
